Paper PMC2791885 (Journal of nuclear medicine : official publication, Society …, 2009)

Legend:
[1] = ultrafiltration, 5 control animals; cited from earlier work
PDE4 = assay: PET compartmental modeling of brain and plasma data
[2] = transient equilibrium, range over scans

concentration of free radioligand calculated with Equation 2 (PDE4; baseline scans): 0.08 to 0.17 nM
concentration of free radioligand calculated with Equation 2 (PDE4; partially blocked scans): 0.29 to 3.00 nM
calculated concentration of free ligand in brain (PDE4; [2]): 0.07 to 5.68 nM
calculated concentration of specifically bound ligand in brain (PDE4; [2]): 3.63 to 88.3 nM
SMILES: COc1ccc([C@@H]2CNC(=O)C2)cc1OC1CCCC1 [(R)-rolipram]
plasma-free fraction (fP) [1]: 30.5% ± 3.1
